Test results as given in the CheMixHub ionic liquid set.
± gives the uncertainty stated by the source.

Test: xn = mol fraction of the nth substance listed

C=CC[n+]1ccn(C)c1.[Cl-] + O
101 kPa
Conditions | viscosity [mPa·s]
298.15 K, x2 = 0.193 | 697 ± 28
298.15 K, x2 = 0.267 | 427 ± 15
303.15 K, x2 = 0.335 | 184 ± 12
313.15 K, x2 = 0.045 | 473 ± 42
313.15 K, x2 = 0.126 | 312 ± 10
323.15 K, x2 = 0.335 | 61 ± 3
333.15 K, x2 = 0.091 | 108 ± 5
353.15 K, x2 = 0.126 | 36.9 ± 0.8
353.15 K, x2 = 0.267 | 24.3 ± 0.5
363.15 K, x2 = 0.091 | 28.6 ± 0.9
363.15 K, x2 = 0.126 | 25.6 ± 0.6
373.15 K, x2 = 0.126 | 18.58 ± 0.41
373.15 K, x2 = 0.193 | 15.98 ± 0.35
373.15 K, x2 = 0.267 | 13.37 ± 0.29

CCCCCCCCCCCCCC[N+](C)(C)C.[Br-] + O
298.15 K, 101 kPa
Conditions | viscosity [mPa·s]
x1 = 2.973e-05 | 0.8984
x1 = 4.144e-05 | 0.8992
x1 = 4.541e-05 | 0.9002
x1 = 6.289e-05 | 0.9005
x1 = 6.739e-05 | 0.9013
x1 = 7.262e-05 | 0.9019
x1 = 0.0001005 | 0.9029
x1 = 0.0001191 | 0.9053
x1 = 0.000178 | 0.9083

CCCCCCCCCCCn1cc[n+](C)c1.O=S(=O)([N-]S(=O)(=O)C(F)(F)F)C(F)(F)F + O
Conditions | viscosity [mPa·s]
338.15 K, 100 kPa, x2 = 0.1567 | 20.54 ± 0.18

CCCCC[n+]1ccccc1.N#C[N-]C#N + O
100 kPa
Conditions | electrical conductivity [S/m] | viscosity [mPa·s]
298.15 K, x1 = 0.9354 | 0.667 ± 0.019 | –
303.15 K, x1 = 0.9354 | 0.833 ± 0.022 | –
308.15 K, x1 = 0.9514 | – | 28.8 ± 1.2
308.15 K, x1 = 0.9515 | 0.979 ± 0.024 | –
308.15 K, x1 = 0.968 | – | 29.6 ± 1.2
313.15 K, x1 = 0.9196 | – | 22.92 ± 0.95
313.15 K, x1 = 0.9198 | 1.23 ± 0.028 | –
318.15 K, x1 = 0.9681 | 1.27 ± 0.03 | –
318.15 K, x2 = 0.01457 | 1.23 ± 0.029 | –
323.15 K, x1 = 0.9196 | – | 15.16 ± 0.63
323.15 K, x1 = 0.9198 | 1.67 ± 0.038 | –
323.15 K, x1 = 0.968 | – | 16.91 ± 0.7
323.15 K, x1 = 0.9681 | 1.5 ± 0.035 | –
323.15 K, x2 = 0.01492 | – | 17.54 ± 0.73
328.15 K, x1 = 0.9351 | – | 14.21 ± 0.59
328.15 K, x1 = 0.9354 | 1.82 ± 0.04 | –
328.15 K, x2 = 0.01457 | 1.65 ± 0.038 | –
328.15 K, x2 = 0.01492 | – | 15.11 ± 0.62
338.15 K, x1 = 0.9514 | – | 11.11 ± 0.46
338.15 K, x1 = 0.9515 | 2.23 ± 0.049 | –

CCCC[n+]1ccn(C)c1.N#C[N-]C#N + O
100 kPa, x1 = 0.6252
Conditions | viscosity [mPa·s]
303 K | 15.03 ± 0.33
308 K | 12.94 ± 0.28
313 K | 11.27 ± 0.25
318 K | 9.91 ± 0.21
323 K | 8.77 ± 0.19

CCCC[n+]1ccn(C)c1.N#C[S-] + O
101 kPa
Conditions | electrical conductivity [S/m] | viscosity [mPa·s]
298.15 K, x1 = 0.0004503 | 0.224 ± 0.001 | –
298.15 K, x1 = 0.0009182 | 0.395 ± 0.001 | –
298.15 K, x1 = 0.001853 | 0.716 ± 0.001 | –
298.15 K, x1 = 0.00477 | 1.451 ± 0.001 | –
298.15 K, x1 = 0.00776 | 1.952 ± 0.001 | –
298.15 K, x1 = 0.01001 | 2.3 ± 0.001 | –
298.15 K, x2 = 0.2007 | – | 33 ± 2.1
298.15 K, x2 = 0.3169 | – | 25.9 ± 1.6
298.15 K, x2 = 0.9437 | 4.47 ± 0.001 | –
298.15 K, x2 = 0.9626 | 4.02 ± 0.001 | –
298.15 K, x2 = 0.9781 | 3.33 ± 0.001 | –
308.15 K, x2 = 0.2007 | – | 22.5 ± 1.4
318.15 K, x2 = 0.2007 | – | 16.2 ± 1
318.15 K, x2 = 0.3169 | – | 13.24 ± 0.83
318.15 K, x2 = 0.7201 | – | 4.66 ± 0.29
328.15 K, x2 = 0 | – | 16.7 ± 1
328.15 K, x2 = 0.0998 | – | 14.22 ± 0.89
328.15 K, x2 = 0.6426 | – | 4.71 ± 0.29
328.15 K, x2 = 0.7201 | – | 3.65 ± 0.23
338.15 K, x2 = 0.3169 | – | 7.96 ± 0.5
338.15 K, x2 = 0.5296 | – | 5.12 ± 0.32
338.15 K, x2 = 0.7949 | – | 2.23 ± 0.14
348.15 K, x2 = 0.5296 | – | 4.16 ± 0.26

CCCC[n+]1ccn(C)c1.N[C@@H](CO)C(=O)[O-] + O
100 kPa
Conditions | electrical conductivity [S/m] | viscosity [mPa·s]
298.15 K, x1 = 0.8281 | 0.00761 ± 0.00037 | –
298.15 K, x1 = 0.8435 | 0.00711 ± 0.00035 | –
298.15 K, x1 = 0.8592 | 0.00675 ± 0.00034 | –
298.15 K, x1 = 0.8757 | 0.00646 ± 0.00032 | –
298.15 K, x1 = 0.8914 | 0.00609 ± 0.00032 | –
298.15 K, x1 = 0.8939 | – | 5180 ± 820
298.15 K, x1 = 0.9163 | – | 5221 ± 830
303.15 K, x1 = 0.8592 | 0.0107 ± 0.00046 | –
303.15 K, x1 = 0.8757 | 0.0101 ± 0.00043 | –
303.15 K, x1 = 0.8914 | 0.00973 ± 0.00041 | –
303.15 K, x1 = 0.8939 | – | 3031 ± 430
308.15 K, x1 = 0.8757 | 0.0159 ± 0.00066 | –
313.15 K, x1 = 0.8939 | – | 1179 ± 130
313.15 K, x1 = 0.939 | – | 1290 ± 140
328.15 K, x1 = 0.8435 | 0.078 ± 0.0025 | –
328.15 K, x1 = 0.8521 | – | 338 ± 23
328.15 K, x1 = 0.8592 | 0.0738 ± 0.0024 | –
328.15 K, x1 = 0.8939 | – | 367 ± 26
328.15 K, x1 = 0.939 | – | 422 ± 32
333.15 K, x1 = 0.8281 | 0.11 ± 0.0034 | –
333.15 K, x1 = 0.8592 | 0.1 ± 0.0031 | –
338.15 K, x1 = 0.8521 | – | 179.9 ± 9.1
338.15 K, x1 = 0.8592 | 0.132 ± 0.0037 | –
